Patent publication US20260317324A1, “BIFUNCTIONAL COMPOUNDS FOR DEGRADING BRAF VIA UBIQUITIN PROTEOSOME PATHWAY” (Nurix Therapeutics, Inc., priority 2023, published 2026)

Target: T1, BRAF V600E (Homo sapiens, UniProt P15056, V600E)
T1 construct: endogenous C-terminal HiBiT fusion tag on BRAF V600E allele; endogenous in cells; host or cells: A375 clone 1F10 (CRISPR-Cas9 knock-in of the HiBiT tag; parental A375 from ATCC)
Assay: BRAF HiBiT degradation assay, C-terminal HiBiT-tagged BRAF V600E A375 cells (clone 1F10), Nano-Glo HiBiT Lytic assay
Assay type: cell-based
Conditions: for Dmax: A-375
Summary of the method: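 Luminescence read-out: Nano-Glo HiBiT lytic reagent with LgBiT, 10 min at room temperature. Signal normalised to DMSO-treated tagged cells, with wildtype A375 as background. Cells are endogenously tagged BRAF V600E A375 clone 1F10. Compounds were tested from 1 μM to 0.01 nM; Dmax is observed % degraded at maximal effect.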

[1] = A375 (BRAF V600E), DC50 at 50%: fitted conc. at Y=50
[2] = A375 (BRAF V600E), percentage protein degraded at maximal compound effect relative to DMSO

T1 sequence (P15056 whole entry V600E, the tested form may be a part): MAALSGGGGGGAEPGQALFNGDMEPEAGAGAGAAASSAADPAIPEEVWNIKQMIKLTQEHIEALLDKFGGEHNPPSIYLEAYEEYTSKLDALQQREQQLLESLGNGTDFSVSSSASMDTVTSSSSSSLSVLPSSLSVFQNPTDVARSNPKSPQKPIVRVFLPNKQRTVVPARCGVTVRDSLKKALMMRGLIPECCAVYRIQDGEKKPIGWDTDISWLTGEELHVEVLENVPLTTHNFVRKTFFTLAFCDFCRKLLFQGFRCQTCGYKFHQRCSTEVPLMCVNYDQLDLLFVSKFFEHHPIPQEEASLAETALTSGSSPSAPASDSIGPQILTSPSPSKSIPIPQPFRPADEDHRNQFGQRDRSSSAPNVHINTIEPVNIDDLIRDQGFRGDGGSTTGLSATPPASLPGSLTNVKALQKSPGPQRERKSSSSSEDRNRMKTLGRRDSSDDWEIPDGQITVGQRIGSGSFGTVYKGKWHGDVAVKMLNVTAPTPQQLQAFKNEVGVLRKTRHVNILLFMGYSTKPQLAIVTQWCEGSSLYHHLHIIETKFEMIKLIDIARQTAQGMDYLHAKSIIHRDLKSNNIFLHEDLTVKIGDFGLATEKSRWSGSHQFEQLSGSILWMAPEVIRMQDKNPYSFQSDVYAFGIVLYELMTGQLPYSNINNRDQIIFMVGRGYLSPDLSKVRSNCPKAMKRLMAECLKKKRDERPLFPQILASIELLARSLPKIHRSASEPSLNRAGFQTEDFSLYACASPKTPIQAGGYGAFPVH

Row | DC50 [1] | Dmax [2] | DC50 (A375 (BRAF V600E, Class 1), DC50 at 50% degradation) | Dmax (A375 (BRAF V600E, Class 1), observed Dmax, % protein degraded relative to DMSO control) | Compound
1 | < 0.01 µM | > 70% |  |  | CCCS(=O)(=O)Nc1cccc(-c2nc(C3CCN(C(=O)C4CCN(C(=O)C5CCN(c6ccc(C7CCC(=O)NC7=O)cc6)CC5)CC4)CC3)sc2-c2ccncn2)c1F (racemic) [Compound 199, Rac-N-[3-(2-{1-[1-(1-{4-[(3R)-2,6-dioxopiperidin-3-yl]phenyl}piperidine-4-carbonyl)piperidine-4-carbonyl]piperidin-4-yl}-5-(pyrimidin-4-yl)-1,3-thiazol-4-yl)-2-fluorophenyl]propane-1-sulfonamide]
2 | > 0.5 µM | 30 to 70% |  |  | CCCS(=O)(=O)Nc1cccc(-c2nc(C(C)(C)C)sc2-c2ccnc(Nc3cnn(C4CCN(C(=O)C[C@@H]5CCN(c6ccc(C7CCC(=O)NC7=O)cc6)C5)CC4)c3)n2)c1F (mixture of isomers) [Compound 105, N-{3-[2-tert-butyl-5-(2-{[1-(1-{2-[(3S)-1-{4-[(3RS)-2,6-dioxopiperidin-3-yl]phenyl}pyrrolidin-3-yl]acetyl}piperidin-4-yl)-1H-pyrazol-4-yl]amino}pyrimidin-4-yl)-1,3-thiazol-4-yl]-2-fluorophenyl}propane-1-sulfonamide]
3 | 0.01 to 0.05 µM | 30 to 70% |  |  | CCCS(=O)(=O)Nc1cccc(-c2nc(C3CCN(C4CN(C(=O)CC5(O)CCN(c6ccc(NC7CCC(=O)NC7=O)cc6F)CC5)C4)CC3)sc2-c2ccnc(N)n2)c1F (racemic) [Compound 214, Rac-N-{3-[5-(2-aminopyrimidin-4-yl)-2-[1-(1-{2-[1-(4-{[(3R)-2,6-dioxopiperidin-3-yl]amino}-2-fluorophenyl)-4-hydroxypiperidin-4-yl]acetyl}azetidin-3-yl)piperidin-4-yl]-1,3-thiazol-4-yl]-2-fluorophenyl}propane-1-sulfonamide]
4 | < 0.01 µM | > 70% |  |  | CCCS(=O)(=O)Nc1cccc(-c2nc(-c3ccc(N4CCN(C(=O)C5CCN(c6ccc(C7CCC(=O)NC7=O)cn6)CC5)CC4)cc3)sc2-c2ccnc(N)n2)c1F (racemic) [Compound 188, Rac-N-{3-[5-(2-aminopyrimidin-4-yl)-2-{4-[4-(1-{5-[(3R)-2,6-dioxopiperidin-3-yl]pyridin-2-yl}piperidine-4-carbonyl)piperazin-1-yl]phenyl}-1,3-thiazol-4-yl]-2-fluorophenyl}propane-1-sulfonamide]
5 | < 0.01 µM | > 70% |  |  | CCCS(=O)(=O)Nc1cccc(-c2nc(C3CCN(C(=O)C4CCN(C(=O)C5CCN(c6ccc(C7CCC(=O)NC7=O)cc6)CC5)CC4)CC3)sc2-c2ccnc(N)n2)c1F (racemic) [Compound 216, Rac-N-{3-[5-(2-aminopyrimidin-4-yl)-2-{1-[1-(1-{4-[(3R)-2,6-dioxopiperidin-3-yl]phenyl}piperidine-4-carbonyl)piperidine-4-carbonyl]piperidin-4-yl}-1,3-thiazol-4-yl]-2-fluorophenyl}propane-1-sulfonamide]
6 | 0.01 to 0.05 µM | 30 to 70% |  |  | CCCS(=O)(=O)Nc1cccc(-c2nc(C(C)(C)C)sc2-c2ccnc(Nc3cccc(OC4CCN(CC5CCN(c6ccc7c(=O)n(C8CCC(=O)NC8=O)ccc7c6)CC5)CC4)c3)n2)c1F (racemic) [Compound 71, Rac-N-{3-[2-tert-butyl-5-(2-{[3-({1-[(1-{2-[(3R)-2,6-dioxopiperidin-3-yl]-1-oxo-1,2-dihydroisoquinolin-6-yl}piperidin-4-yl)methyl]piperidin-4-yl}oxy)phenyl]amino}pyrimidin-4-yl)-1,3-thiazol-4-yl]-2-fluorophenyl}propane-1-sulfonamide]
7 | 0.05 to 0.5 µM | 30 to 70% |  |  | CCCS(=O)(=O)Nc1cccc(-c2nc(C(C)(C)C)sc2-c2ccnc(N[C@H]3CC[C@H](N4CCN(C(=O)C5CCN(c6ccc(C7CCC(=O)NC7=O)cn6)CC5)CC4)CC3)n2)c1F (mixture of isomers) [Compound 137, N-{3-[2-tert-butyl-5-(2-{[(1r,4r)-4-[4-(1-{5-[(3RS)-2,6-dioxopiperidin-3-yl]pyridin-2-yl}piperidine-4-carbonyl)piperazin-1-yl]cyclohexyl]amino}pyrimidin-4-yl)-1,3-thiazol-4-yl]-2-fluorophenyl}propane-1-sulfonamide]
8 | 0.05 to 0.5 µM | > 70% |  |  | CCCS(=O)(=O)Nc1cccc(-c2nc(C3(C)CCN(C(=O)C4CCN(CC5CCN(c6ccc(C7CCC(=O)NC7=O)cn6)CC5)CC4)CC3)sc2-c2ccnc(N)n2)c1F (racemic) [Compound 218, Rac-N-{3-[5-(2-aminopyrimidin-4-yl)-2-(1-{1-[(1-{5-[(3R)-2,6-dioxopiperidin-3-yl]pyridin-2-yl}piperidin-4-yl)methyl]piperidine-4-carbonyl}-4-methylpiperidin-4-yl)-1,3-thiazol-4-yl]-2-fluorophenyl}propane-1-sulfonamide]
9 |  |  | < 0.01 µM | > 70% | CCCS(=O)(=O)Nc1cccc(-c2nc(C3CCC4(CC3)CCN(C(=O)CC3CCN(C5CCN(c6ccc7c(c6)C(=O)N(C6CCC(=O)NC6=O)C7=O)CC5)CC3)CC4)sc2-c2ccnc(N)n2)c1F (racemic) [Compound 248, Rac-N-{3-[5-(2-aminopyrimidin-4-yl)-2-{3-[2-(1′-{2-[(3R)-2,6-dioxopiperidin-3-yl]-1,3-dioxo-2,3-dihydro-1H-isoindol-5-yl}-[1,4′-bipiperidin]-4-yl)acetyl]-3-azaspiro[5.5]undecan-9-yl}-1,3-thiazol-4-yl]-2-fluorophenyl}propane-1-sulfonamide]
10 | 0.01 to 0.05 µM | 30 to 70% |  |  | CCCS(=O)(=O)Nc1cccc(-c2nc(C(C)(C)C)sc2-c2ccnc(Nc3ccc(C4CCN(C(=O)CCCCCc5ccc6c(c5)C(=O)N(C5CCC(=O)NC5=O)C6)CC4)cc3)n2)c1F (racemic) [Compound 151, Rac-N-(3-{2-tert-butyl-5-[2-({4-[1-(6-{2-[(3R)-2,6-dioxopiperidin-3-yl]-3-oxo-2,3-dihydro-1H-isoindol-5-yl}hexanoyl)piperidin-4-yl]phenyl}amino)pyrimidin-4-yl]-1,3-thiazol-4-yl}-2-fluorophenyl)propane-1-sulfonamide]
11 | 0.05 to 0.5 µM | 30 to 70% |  |  | CCCS(=O)(=O)Nc1cccc(-c2nc(C3(C)CCN(C(=O)CN4CCN(c5ccc6c(c5)C(=O)N(C5CCC(=O)NC5=O)C6=O)CC4)CC3)sc2-c2ccnc(N)n2)c1F (racemic) [Compound 232, Rac-N-{3-[5-(2-aminopyrimidin-4-yl)-2-{1-[2-(4-{2-[(3R)-2,6-dioxopiperidin-3-yl]-1,3-dioxo-2,3-dihydro-1H-isoindol-5-yl}piperazin-1-yl)acetyl]-4-methylpiperidin-4-yl}-1,3-thiazol-4-yl]-2-fluorophenyl}propane-1-sulfonamide]
12 | 0.05 to 0.5 µM | 30 to 70% |  |  | CCCS(=O)(=O)Nc1cccc(-c2nc(C(C)(C)C)sc2-c2ccnc(Nc3ccc(C4CCN(CC5CCN(c6ccc(C(=O)NC7CCC(=O)NC7=O)nc6)CC5)CC4)cc3)n2)c1F (racemic) [Compound 169, Rac-5-{4-[(4-{4-[(4-{2-tert-butyl-4-[2-fluoro-3-(propane-1-sulfonamido)phenyl]-1,3-thiazol-5-yl}pyrimidin-2-yl)amino]phenyl}piperidin-1-yl)methyl]piperidin-1-yl}-N-[(3R)-2,6-dioxopiperidin-3-yl]pyridine-2-carboxamide]
13 | > 0.5 µM | 30 to 70% |  |  | CCCS(=O)(=O)Nc1cccc(-c2nc(C(C)(C)C3CCN(C(=O)CN4CCC5(CC4)CN(c4ccc6c(c4)C(=O)N(C4CCC(=O)NC4=O)C6=O)C5)CC3)sc2-c2ccnc(N)n2)c1F (racemic) [Compound 240, Rac-N-{3-[5-(2-aminopyrimidin-4-yl)-2-(2-{1-[2-(2-{2-[(3R)-2,6-dioxopiperidin-3-yl]-1,3-dioxo-2,3-dihydro-1H-isoindol-5-yl}-2,7-diazaspiro[3.5]nonan-7-yl)acetyl]piperidin-4-yl}propan-2-yl)-1,3-thiazol-4-yl]-2-fluorophenyl}propane-1-sulfonamide]
14 | 0.05 to 0.5 µM | > 70% |  |  | CCCS(=O)(=O)Nc1cccc(-c2nc(C(C)(C)C)sc2-c2ccnc(NC3CC4(C3)CN(C(=O)C3CN(C5CCN(c6ccc7c(c6)C(=O)N(C6CCC(=O)NC6=O)C7=O)CC5)C3)C4)n2)c1F (racemic) [Compound 154, Rac-N-(3-{2-tert-butyl-5-[2-({2-[1-(1-{2-[(3R)-2,6-dioxopiperidin-3-yl]-1,3-dioxo-2,3-dihydro-1H-isoindol-5-yl}piperidin-4-yl)azetidine-3-carbonyl]-2-azaspiro[3.3]heptan-6-yl}amino)pyrimidin-4-yl]-1,3-thiazol-4-yl}-2-fluorophenyl)propane-1-sulfonamide]
15 | 0.01 to 0.05 µM | > 70% |  |  | CCCS(=O)(=O)Nc1cccc(-c2nc(C(C)(C)C)sc2-c2ccnc(Nc3ccc(N4CCN(C(=O)[C@H]5CC[C@H](Oc6ccc(C7CCC(=O)NC7=O)cn6)CC5)CC4)c(F)c3)n2)c1F (mixture of isomers) [Compound 50, N-[3-(2-tert-butyl-5-{2-[(3-fluoro-4-{4-[(1r,4r)-4-({5-[(3RS)-2,6-dioxopiperidin-3-yl]pyridin-2-yl}oxy)cyclohexanecarbonyl]piperazin-1-yl}phenyl)amino]pyrimidin-4-yl}-1,3-thiazol-4-yl)-2-fluorophenyl]propane-1-sulfonamide]
